In PMC6685790 (Nature structural & molecular biology, 2008):
Positions count from the first letter of the chain named.

How the values were obtained:
Assay type in all cases: cell-based
GlyR α1^I111A = target: T1, GlyR α1^I111A (Homo sapiens, UniProt P23415, I139A); test: Whole-cell recording of substituted GlyR in HEK cells
T1 sequence (P23415 29-457 I139A): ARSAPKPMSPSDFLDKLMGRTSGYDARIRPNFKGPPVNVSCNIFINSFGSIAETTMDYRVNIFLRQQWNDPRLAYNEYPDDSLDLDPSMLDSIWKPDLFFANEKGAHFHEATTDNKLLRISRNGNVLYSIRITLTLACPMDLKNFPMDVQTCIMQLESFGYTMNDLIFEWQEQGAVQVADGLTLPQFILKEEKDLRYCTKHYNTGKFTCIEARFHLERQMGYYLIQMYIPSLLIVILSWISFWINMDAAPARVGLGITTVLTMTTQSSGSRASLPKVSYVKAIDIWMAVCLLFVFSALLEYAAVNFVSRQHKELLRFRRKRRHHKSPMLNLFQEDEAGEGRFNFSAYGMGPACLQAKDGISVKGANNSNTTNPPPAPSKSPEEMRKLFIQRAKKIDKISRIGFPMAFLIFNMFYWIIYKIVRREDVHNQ

GlyR α1^L134A = target: T2, GlyR α1^L134A (Homo sapiens, UniProt P23415, L162A); test: as above; settings: α1^L134A
T2 sequence (P23415 29-457 L162A): T1 sequence (P23415 29-457 I139A) with A111I, L134A

GlyR α1^I62A = target: T3, GlyR α1^I62A (Homo sapiens, UniProt P23415, I90A); test: as above
T3 sequence (P23415 29-457 I90A): T1 sequence (P23415 29-457 I139A) with I62A, A111I

GlyR α1^F108A = target: T4, GlyR α1^F108A (Homo sapiens, UniProt P23415, F136A); settings: α1^F108A
T4 sequence (P23415 29-457 F136A): T1 sequence (P23415 29-457 I139A) with F108A, A111I

GlyR α1^L64A = target: T5, GlyR α1^L64A (Homo sapiens, UniProt P23415, L92A); test: Whole-cell recording of substituted GlyR in HEK cells
T5 sequence (P23415 29-457 L92A): T1 sequence (P23415 29-457 I139A) with L64A, A111I

GlyR α1^V60A = target: T6, GlyR α1^V60A (Homo sapiens, UniProt P23415, V88A); test: as above
T6 sequence (P23415 29-457 V88A): T1 sequence (P23415 29-457 I139A) with V60A, A111I

[1] = maximal Zn^2+ response as percentage of maximal glycine response in same cell
[2] = read-out: Zn^2+ Activation EC50, direct activation without glycine
[3] = read-out: Zn^2+ Inhibition IC50, modulation of EC50 glycine currents

SMILES: NCC(=O)O [Glycine, glycine]
- Glycine Imax (GlyR α1^I111A): 4.6 ± 0.8 nA
- Glycine nH (GlyR α1^I111A; Hill slope): 1.3 ± 0.2
- Glycine Imax (GlyR α1^L134A): 6.0 ± 0.3 nA
- Glycine nH (GlyR α1^L134A; Hill slope): 3.0 ± 0.4
- Glycine Imax (GlyR α1^I62A): 7.6 ± 0.7 nA
- Glycine nH (GlyR α1^I62A; Hill slope): 2.5 ± 0.1
- Glycine Imax (GlyR α1^F108A): 4.5 ± 0.5 nA
- Glycine nH (GlyR α1^F108A; Hill slope): 2.3 ± 0.1
- Glycine Imax (GlyR α1^L64A): 5.6 ± 0.8 nA
- Glycine nH (GlyR α1^L64A; Hill slope): 2 ± 0.6
- Glycine Imax (GlyR α1^V60A): 6.5 ± 1.3 nA
- Glycine nH (GlyR α1^V60A; Hill slope): 3.5 ± 0.8

SMILES: [Zn+2] [Zn^2+]
- Zn^2+ Activation nH (GlyR α1^I111A; Hill slope): 0.7 ± 0.2
- Zn^2+ Activation Relative efficacy (% Gly Imax) (GlyR α1^I111A; [1]): 83 ± 3 % Gly Imax
- EC50 (GlyR α1^I111A; [2]): 470 ± 130 µM
- IC50 (GlyR α1^I111A; [3]): > 1000 µM
- EC50 (GlyR α1^L134A; [2]): 0.06 ± 0.01 µM
- IC50 (GlyR α1^L134A; [3]): > 1000 µM
- Zn^2+ Activation nH (GlyR α1^L134A; Hill slope): 1.3 ± 0.1
- Zn^2+ Activation Relative efficacy (% Gly Imax) (GlyR α1^L134A; [1]): 38 ± 9 % Gly Imax
- Zn^2+ Activation Relative efficacy (% Gly Imax) (GlyR α1^I62A; maximal activation with 1 mM Zn^2+, as percentage of maximal glycine response in same cell): 3 ± 1 % Gly Imax
- EC50 (GlyR α1^I62A; [2]): > 1000 µM
- IC50 (GlyR α1^I62A; [3]): > 1000 µM
- EC50 (GlyR α1^F108A; [2]): 2.3 ± 0.6 µM
- IC50 (GlyR α1^F108A; [3]): > 1000 µM
- Zn^2+ Activation nH (GlyR α1^F108A; Hill slope): 0.7 ± 0.1
- Zn^2+ Activation Relative efficacy (% Gly Imax) (GlyR α1^F108A; [1]): 25 ± 6 % Gly Imax
- Zn^2+ Activation nH (GlyR α1^L64A; Hill slope): 1.1 ± 0.4
- Zn^2+ Activation Relative efficacy (% Gly Imax) (GlyR α1^L64A; [1]): 10 ± 3 % Gly Imax
- EC50 (GlyR α1^L64A; [2]): 1.5 ± 1.3 µM
- IC50 (GlyR α1^L64A; [3]): 70 ± 9 µM
- Zn^2+ Activation EC50 (GlyR α1^V60A; direct activation without glycine): None
- IC50 (GlyR α1^V60A; [3]): 10.1 ± 1.26 µM
